In ChEMBL document CHEMBL1201862, “PubChem BioAssay data set” (2004):
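Interpolation was linear, between the two tested concentrations surrounding the appropriate level; five concentrations were tested over 48 hours in 96-well plates. GI50 marks 50% less growth.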 Calls of active or inactive are those of the source. Cut-off read from the data, not from the text of the source: active = GI50 up to about 1.1 µM and inactive = higher.

Key:
Assay in all cases: NCI tumour cell line growth inhibition, 48 h
KM12 = tested on: KM12
DMS-273 = tested on: DMS-273
SF-295 = tested on: SF-295
M19-MEL = tested on: M19-MEL
A498 = tested on: A498
U-251 = tested on: U-251
OVCAR-8 = tested on: OVCAR-8
HCT-15 = tested on: HCT-15
MOLT-4 = tested on: MOLT-4
CAKI-1 = tested on: CAKI-1
NCI-H460 = tested on: NCI-H460
SK-MEL-28 = tested on: SK-MEL-28
XF498 = tested on: XF498
NCI-H522 = tested on: NCI-H522
LOX IMVI = tested on: LOX IMVI
SF-268 = tested on: SF-268
SNB-19 = tested on: SNB-19
NCI-H23 = tested on: NCI-H23
786-0 = tested on: 786-0
RPMI-8226 = tested on: RPMI-8226
OVCAR-4 = tested on: OVCAR-4
A549 = tested on: A549
CCRF-CEM = tested on: CCRF-CEM
HOP-18 = tested on: HOP-18
HL-60 = tested on: HL-60
TK-10 = tested on: TK-10
SK-OV-3 = tested on: SK-OV-3
UACC-257 = tested on: UACC-257
SN12C = tested on: SN12C
UO-31 = tested on: UO-31
RXF 393 = tested on: RXF 393
OVCAR-3 = tested on: OVCAR-3
LXFL 529 = tested on: LXFL 529
RXF 631 = tested on: RXF 631
EKVX = tested on: EKVX
COLO 205 = tested on: COLO 205
UACC-62 = tested on: UACC-62
SK-MEL-2 = tested on: SK-MEL-2
NCI-H226 = tested on: NCI-H226
DLD-1 = tested on: DLD-1
SNB-75 = tested on: SNB-75
HT-29 = tested on: HT-29
SW-620 = tested on: SW-620
SF-539 = tested on: SF-539
OVCAR-5 = tested on: OVCAR-5
M14 = tested on: M14
K562 = tested on: K562
IGROV-1 = tested on: IGROV-1
SK-MEL-5 = tested on: SK-MEL-5
ACHN = tested on: ACHN
HOP-92 = tested on: HOP-92
Malme-3M = tested on: Malme-3M
KM-20L2 = tested on: KM-20L2
HOP-62 = tested on: HOP-62
DMS-114 = tested on: DMS-114
HCC 2998 = tested on: HCC 2998
HCT-116 = tested on: HCT-116
SNB-78 = tested on: SNB-78

O=C(O)CN(c1ccc(F)cc1)S(=O)(=O)c1ccccc1
GI50 (KM12): > 100 µM (inactive)
GI50 (DMS-273): > 100 µM (inactive)
GI50 (SF-295): > 100 µM (inactive)
GI50 (M19-MEL): > 100 µM (inactive)
GI50 (A498): > 100 µM (inactive)
GI50 (U-251): > 100 µM (inactive)
GI50 (OVCAR-8): > 100 µM (inactive)
GI50 (HCT-15): > 100 µM
GI50 (MOLT-4): > 100 µM (inactive)
GI50 (CAKI-1): > 100 µM (inactive)
GI50 (NCI-H460): > 100 µM (inactive)
GI50 (SK-MEL-28): > 100 µM (inactive)
GI50 (XF498): > 100 µM (inactive)
GI50 (NCI-H522): > 100 µM (inactive)
GI50 (LOX IMVI): > 100 µM (inactive)
GI50 (SF-268): > 100 µM (inactive)
GI50 (SNB-19): > 100 µM (inactive)
GI50 (NCI-H23): > 100 µM (inactive)
GI50 (786-0): > 100 µM (inactive)
GI50 (RPMI-8226): > 100 µM (inactive)
GI50 (OVCAR-4): > 100 µM (inactive)
GI50 (A549): > 100 µM (inactive)
GI50 (CCRF-CEM): > 100 µM (inactive)
GI50 (HOP-18): > 100 µM (inactive)
GI50 (HL-60): > 100 µM (inactive)
GI50 (TK-10): > 100 µM (inactive)
GI50 (SK-OV-3): > 100 µM (inactive)
GI50 (UACC-257): > 100 µM (inactive)
GI50 (SN12C): > 100 µM (inactive)
GI50 (UO-31): > 100 µM (inactive)
GI50 (RXF 393): > 100 µM (inactive)
GI50 (OVCAR-3): > 100 µM (inactive)
GI50 (LXFL 529): > 100 µM (inactive)
GI50 (RXF 631): > 100 µM (inactive)
GI50 (EKVX): > 100 µM (inactive)
GI50 (COLO 205): > 100 µM (inactive)
GI50 (UACC-62): > 100 µM (inactive)
GI50 (SK-MEL-2): > 100 µM (inactive)
GI50 (NCI-H226): > 100 µM (inactive)
GI50 (DLD-1): > 100 µM (inactive)
GI50 (SNB-75): > 100 µM (inactive)
GI50 (HT-29): > 100 µM (inactive)
GI50 (SW-620): > 100 µM (inactive)
GI50 (SF-539): > 100 µM (inactive)
GI50 (OVCAR-5): > 100 µM (inactive)
GI50 (M14): > 100 µM (inactive)
GI50 (K562): > 100 µM (inactive)
GI50 (IGROV-1): > 100 µM (inactive)
GI50 (SK-MEL-5): > 100 µM (inactive)
GI50 (ACHN): > 100 µM (inactive)
GI50 (HOP-92): > 100 µM (inactive)
GI50 (Malme-3M): > 100 µM (inactive)
GI50 (KM-20L2): > 100 µM (inactive)

O=[N+]([O-])c1cccc(C(O)/C(=N/O)c2nc3ccc(Cl)cc3nc2O)c1 (stereo not drawn)
GI50 (KM12): > 100 µM (inactive)
GI50 (SF-295): > 100 µM (inactive)
GI50 (M19-MEL): > 100 µM (inactive)
GI50 (OVCAR-8): > 100 µM (inactive)
GI50 (MOLT-4): > 100 µM (inactive)
GI50 (NCI-H460): > 100 µM (inactive)
GI50 (SK-MEL-28): > 100 µM (inactive)
GI50 (XF498): > 100 µM (inactive)
GI50 (NCI-H522): > 100 µM (inactive)
GI50 (LOX IMVI): > 100 µM (inactive)
GI50 (HOP-62): > 100 µM (inactive)
GI50 (DMS-114): > 100 µM (inactive)
GI50 (SNB-19): > 100 µM (inactive)
GI50 (NCI-H23): > 100 µM (inactive)
GI50 (786-0): > 100 µM (inactive)
GI50 (RPMI-8226): > 100 µM (inactive)
GI50 (OVCAR-4): > 100 µM (inactive)
GI50 (A549): > 100 µM (inactive)
GI50 (CCRF-CEM): > 100 µM (inactive)
GI50 (HOP-18): > 100 µM (inactive)
GI50 (HL-60): > 100 µM (inactive)
GI50 (TK-10): > 100 µM (inactive)
GI50 (SK-OV-3): > 100 µM (inactive)
GI50 (UACC-257): > 100 µM (inactive)
GI50 (SN12C): > 100 µM (inactive)
GI50 (HCC 2998): > 100 µM (inactive)
GI50 (UO-31): > 100 µM (inactive)
GI50 (RXF 393): > 100 µM (inactive)
GI50 (OVCAR-3): > 100 µM (inactive)
GI50 (LXFL 529): > 100 µM (inactive)
GI50 (RXF 631): > 100 µM (inactive)
GI50 (EKVX): > 100 µM (inactive)
GI50 (COLO 205): > 100 µM (inactive)
GI50 (HCT-116): > 100 µM (inactive)
GI50 (UACC-62): > 100 µM (inactive)
GI50 (NCI-H226): > 100 µM (inactive)
GI50 (DLD-1): > 100 µM (inactive)
GI50 (SNB-75): > 100 µM (inactive)
GI50 (HT-29): > 100 µM (inactive)
GI50 (SW-620): > 100 µM (inactive)
GI50 (SF-539): > 100 µM (inactive)
GI50 (OVCAR-5): > 100 µM (inactive)
GI50 (M14): > 100 µM (inactive)
GI50 (K562): > 100 µM (inactive)
GI50 (IGROV-1): > 100 µM (inactive)
GI50 (SK-MEL-5): > 100 µM (inactive)
GI50 (ACHN): > 100 µM (inactive)
GI50 (HOP-92): > 100 µM (inactive)
GI50 (Malme-3M): > 100 µM (inactive)
GI50 (KM-20L2): > 100 µM (inactive)

c1ccc(/N=c2\snc3scc(-c4ccccc4)n23)cc1
GI50 (KM12): 36.5 µM (inactive)
GI50 (DMS-273): 38.8 µM (inactive)
GI50 (SF-295): 37.5 µM (inactive)
GI50 (M19-MEL): 32.3 µM (inactive)
GI50 (A498): > 100 µM (inactive)
GI50 (U-251): 26.8 µM (inactive)
GI50 (OVCAR-8): 48.6 µM (inactive)
GI50 (HCT-15): 41.6 µM
GI50 (MOLT-4): 29.3 µM (inactive)
GI50 (SNB-78): 57.3 µM (inactive)
GI50 (CAKI-1): 49.5 µM (inactive)
GI50 (SK-MEL-28): 41 µM (inactive)
GI50 (XF498): 32.1 µM (inactive)
GI50 (NCI-H522): 18.7 µM (inactive)
GI50 (LOX IMVI): 34.4 µM (inactive)
GI50 (HOP-62): 30.5 µM (inactive)
GI50 (DMS-114): 30.3 µM (inactive)
GI50 (SF-268): 50.1 µM (inactive)
GI50 (SNB-19): 39.2 µM (inactive)
GI50 (NCI-H23): 36.6 µM (inactive)
GI50 (786-0): 50.5 µM (inactive)
GI50 (RPMI-8226): 28.7 µM (inactive)
GI50 (OVCAR-4): 39.6 µM (inactive)
GI50 (A549): 37.5 µM (inactive)
GI50 (CCRF-CEM): 43.8 µM (inactive)
GI50 (HOP-18): 24.8 µM (inactive)
GI50 (HL-60): 40.6 µM (inactive)
GI50 (TK-10): 66.2 µM (inactive)
GI50 (SK-OV-3): 84.1 µM (inactive)
GI50 (UACC-257): 32.5 µM (inactive)
GI50 (SN12C): 44.6 µM (inactive)
GI50 (HCC 2998): 44.1 µM (inactive)
GI50 (UO-31): 27.6 µM (inactive)
GI50 (RXF 393): 46.2 µM (inactive)
GI50 (OVCAR-3): 22.8 µM (inactive)
GI50 (LXFL 529): 33.5 µM (inactive)
GI50 (RXF 631): 66.8 µM (inactive)
GI50 (EKVX): 90.2 µM (inactive)
GI50 (COLO 205): 31.5 µM (inactive)
GI50 (UACC-62): 30.1 µM (inactive)
GI50 (SK-MEL-2): 34.8 µM (inactive)
GI50 (NCI-H226): 26.7 µM (inactive)
GI50 (DLD-1): 36.9 µM (inactive)
GI50 (SNB-75): > 100 µM (inactive)
GI50 (HT-29): 50.5 µM (inactive)
GI50 (SW-620): 39.4 µM (inactive)
GI50 (SF-539): 37.4 µM (inactive)
GI50 (OVCAR-5): > 100 µM (inactive)
GI50 (M14): 33 µM (inactive)
GI50 (K562): 52.6 µM (inactive)
GI50 (IGROV-1): 41.8 µM (inactive)
GI50 (SK-MEL-5): 24.5 µM (inactive)
GI50 (ACHN): 48 µM (inactive)
GI50 (HOP-92): 34.2 µM (inactive)
GI50 (Malme-3M): 31.6 µM (inactive)
